In experiment [1] the target is T1, Brd4 bromodomain 1 (BRD4(1)) (Homo sapiens, UniProt O60885).
T1 construct: made in house; host or cells: E. coli BL21(DE3)
Description: Inhibition of tetra-acetylated histone H4 binding to Brd4 bromodomain 1 (TR-FRET). To be noted: tetra-acetylated histone H4 peptide, first bromodomain of Brd4. On the procedure: Proteins were cloned and overexpressed with a N-terminal 6× His tag, then purified by nickel affinity followed by size exclusion chromatography. Briefly, E.coli BL21(DE3) cells were transformed with a recombinant expression vector encoding N-terminally Nickel affinity tagged bromodomains from Brd2, Brd3, Brd4. Cell cultures were incubated at 37° C. with shaking to the appropriate density and induced overnight with IPTG. The supernatant of lysed cells was loaded onto Ni-IDA column for purification. Eluted protein was pooled, concentrated and further purified by size exclusion chromatography. Fractions representing monomeric protein were pooled, concentrated, aliquoted, and frozen at −80° C. for use in subsequent experiments.
Binding of tetra-acetylated histone H4 and BET bromodomains was confirmed by a Time Resolved Fluorescence Resonance Energy Transfer (TR-FRET) method. N-terminally His-tagged bromodomains (200 nM) and biotinylated tetra-acetylated histone H4 peptide (25-50 nM, Millipore) were incubated in the presence of Europium Cryptate-labeled streptavidin (Cisbio Cat. #610SAKLB) and XL665-labeled monoclonal anti-His antibody (Cisbio Cat. #61HISXLB) in a white 96 well microtiter plate (Greiner). For inhibition assays, serially diluted test compound was added to these reactions in a 0.2% final concentration of DMSO. Final buffer concentrations were 30 mM HEPES pH 7.4, 30 mM NaCl, 0.3 mM CHAPS, 20 mM phosphate pH 7.0, 320 mM KF, 0.08% BSA). After a 2-h incubation at room temperature, the fluorescence by FRET was measured at 665 and 620 nm by a SynergyH4 plate reader (Biotek). The binding inhibitory activity was shown by a decrease in 665 nm fluorescence relative to 620 nm. IC50 values were determined from a dose response curve.

The next experiment has as its system human AML MV-4-11 cells. The experiment can be described thus: Inhibition of cell proliferation in MV4-11 cells (CellTiter Aqueous One). As to conditions: for Cell Proliferation activity: 72 h; for IC50: MV4-11, 72 h. Format: cell-based. On the procedure: MV4-11 cells: 96-well plates were seeded with 5×10^4 cells per well of exponentially growing human AML MV-4-11 (CRL-9591) cells and immediately treated with two-fold dilutions of test compounds, ranging from 30 μM to 0.2 μM. Triplicate wells were used for each concentration, as well as a media only and three DMSO control wells. The cells and compounds were incubated at 37° C., 5% CO2 for 72 h before adding 20 μL of the CellTiter Aqueous One Solution (Promega) to each well and incubating at 37° C., 5% CO2 for an additional 3-4 h. The absorbance was taken at 490 nm in a spectrophotometer and the percentage of proliferation relative to DMSO-treated cells was calculated after correction from the blank well. IC50 were calculated using the GraphPad Prism software.

The next experiment relates to c-myc. The experiment can be described thus: Inhibition of c-myc expression (mRNA, real-time PCR) in MV4-11 cells. It is filed as cell-based. To be noted: Human AML MV4-11 cells, 3 h, cMYC mRNA. The method, then:
MV4-11 cells (CRL-9591) were plated at a density of 2.5×10^4 cells per well in 96 well U-bottom plates and treated with increasing concentrations of test compound or DMSO (0.1%) in IMDM media containing 10% FBS and penicillin/streptomycin, and incubated for 3 h at 37° C. Triplicate wells were used for each concentration. Cells were pelleted by centrifugation and harvested using the mRNA Catcher PLUS kit according to manufacturer's instructions. The eluted mRNA isolated was then used in a one-step quantitative real-time PCR reaction, using components of the RNA UltraSense™ One-Step Kit (Life Technologies) together with Applied Biosystems TaqMan® primer-probes for cMYC and Cyclophilin. Real-time PCR plates were run on a VIaTM7 real time PCR machine (Applied Biosystems), data was analyzed, normalizing the Ct values for cMYC to an internal control, prior to determining the fold expression of each sample, relative to the control.

`COC(=O)c1cc(-c2c(C)noc2C)cc2c1[nH]c(=O)n2Cc1ccccc1` [Example Compound 20, methyl 1-benzyl-6-(3,5-dimethylisoxazol-4-yl)-2-oxo-2,3-dihydro-1H-benzo[d]imidazole-4-carboxylate]: the IC50 in experiment [1] is no more than 300 nM. The “Cell Proliferation activity” value in the experiment with human AML MV-4-11 cells is “Not active”.

In the case of `Cc1noc(C)c1-c1cc2c([nH]c1=O)c(C)nn2Cc1ccc(F)cc1` [Example Compound 25, 6-(3,5-dimethylisoxazol-4-yl)-1-(4-fluorobenzyl)-3-methyl-1H-pyrazolo[4,3-b]pyridin-5(4H)-one], the IC50 in experiment [1] was 3000 to 30000 nM. Further, in the experiment with human AML MV-4-11 cells, the “Cell Proliferation activity” value was “Not active”.

On to `Cc1noc(C)c1-c1cnc2ncn(Cc3ccccn3)c2c1` [Example Compound 47, 3,5-dimethyl-4-(1-(pyridin-2-ylmethyl)-1H-imidazo[4,5-b]pyridin-6-yl)isoxazole], for which the concentration for half-maximal inhibition (IC50) in experiment [1] was in the range of 3000 to 30000 nM. In addition, the “Cell Proliferation activity” value with human AML MV-4-11 cells is “Not active”.

As for `Cc1noc(C)c1-c1ccc2[nH]cc(Nc3cccc(C#N)c3)c2n1` [Example Compound 57, 3-((5-(3,5-dimethylisoxazol-4-yl)-1H-pyrrolo[3,2-b]pyridin-3-yl)amino)benzonitrile], the IC50 (in experiment [1]; in the experiment with human AML MV-4-11 cells) was 3000 to 30000 nM in each case.

In the case of `CCOc1nc2ncc(-c3c(C)noc3C)cc2n1Cc1ccccc1` [Example Compound 59, 4-(1-benzyl-2-ethoxy-1H-imidazo[4,5-b]pyridin-6-yl)-3,5-dimethylisoxazole], the IC50 in experiment [1] fell in the range of 300 to 3000 nM. In the experiment with human AML MV-4-11 cells, the “Cell Proliferation activity” value is “Not active”.

For the compound `Cc1noc(C)c1-c1cc2c(ncn2Cc2ccc(F)cc2)[n+]([O-])c1` [compound 79, 6-(3,5-dimethylisoxazol-4-yl)-1-(4-fluorobenzyl)-1H-imidazo[4,5-b]pyridine 4-oxide], in the experiment with human AML MV-4-11 cells, the “Cell Proliferation activity” value is given as “Not active”.

On to `CC(=O)Oc1nc2ncn(Cc3ccc(F)cc3)c2cc1-c1c(C)noc1C` [compound 80, 6-(3,5-dimethylisoxazol-4-yl)-1-(4-fluorobenzyl)-1H-imidazo[4,5-b]pyridin-5-yl acetate], for which the IC50 in experiment [1] was 300 to 3000 nM. Also, the “Cell Proliferation activity” value with human AML MV-4-11 cells is “Not active”.

As for `Cc1noc(C)c1-c1cc(N)c2[nH]c(=O)n(Cc3ccc(Cl)cc3)c2c1` [compound 90, 4-amino-1-(4-chlorobenzyl)-6-(3,5-dimethylisoxazol-4-yl)-1H-benzo[d]imidazol-2(3H)-one], the IC50 in experiment [1] is no more than 300 nM; in the experiment with c-myc, no more than 300 nM; with human AML MV-4-11 cells, 300 to 3000 nM.

As for `COc1ccc(Cn2c(=O)[nH]c3c(N)cc(-c4c(C)noc4C)cc32)cc1` [compound 104, 4-amino-6-(3,5-dimethylisoxazol-4-yl)-1-(4-methoxybenzyl)-1H-benzo[d]imidazol-2(3H)-one], the IC50 is no more than 300 nM in experiment [1], 300 to 3000 nM in the experiment with c-myc and 300 to 3000 nM in the experiment with human AML MV-4-11 cells.

Consider `CCNc1nc2ncc(-c3c(C)noc3C)cc2n1Cc1ccccc1` [compound 107, 1-benzyl-6-(3,5-dimethylisoxazol-4-yl)-N-ethyl-1H-imidazo[4,5-b]pyridin-2-amine], for which the IC50 in experiment [1] is no more than 300 nM; with human AML MV-4-11 cells, 300 to 3000 nM.

Regarding `Cc1noc(C)c1-c1cc([N+](=O)[O-])c2[nH]c(=O)n(C(C)c3ccccc3)c2c1` (stereo not shown) [compound 110, 6-(3,5-dimethylisoxazol-4-yl)-4-nitro-1-(1-phenylethyl)-1H-benzo[d]imidazol-2(3H)-one], the IC50 in experiment [1] was no more than 300 nM; in the experiment on c-myc it was 300 to 3000 nM; in the experiment on human AML MV-4-11 cells, 300 to 3000 nM.

Consider `CCOc1nc2c(NC(C)=O)cc(-c3c(C)noc3C)cc2n1Cc1ccccc1` [compound 120, N-(1-benzyl-6-(3,5-dimethylisoxazol-4-yl)-2-ethoxy-1H-benzo[d]imidazol-4-yl)acetamide], for which the IC50 in experiment [1] was no more than 300 nM; in the experiment with c-myc, 300 to 3000 nM; in the experiment with human AML MV-4-11 cells, 300 to 3000 nM.

As to `Cc1noc(C)c1-c1cnc2[nH]c(=O)n(Cc3ccc(Cl)s3)c2c1` [compound 124, 1-((5-chlorothiophen-2-yl)methyl)-6-(3,5-dimethylisoxazol-4-yl)-1H-imidazo[4,5-b]pyridin-2(3H)-one], the IC50 in experiment [1] is no more than 300 nM; in the experiment with c-myc it was 300 to 3000 nM; with human AML MV-4-11 cells, 300 to 3000 nM.

As for `Cc1noc(C)c1-c1cc([N+](=O)[O-])c2nc(C)n([C@@H](C)c3ccccc3)c2c1` [compound 125, (S)-3,5-dimethyl-4-(2-methyl-4-nitro-1-(1-phenylethyl)-1H-benzo[d]imidazol-6-yl)isoxazole], the values for the IC50 (in experiment [1]; in the experiment with c-myc; with human AML MV-4-11 cells) were no more than 300 nM, no more than 300 nM and 300 to 3000 nM, respectively.

Take `Cc1noc(C)c1-c1cc([N+](=O)[O-])c2nc(C)n([C@H](C)c3ccccc3)c2c1` [compound 126, (R)-3,5-dimethyl-4-(2-methyl-4-nitro-1-(1-phenylethyl)-1H-benzo[d]imidazol-6-yl)isoxazole]: the IC50 in experiment [1] was no more than 300 nM; in the experiment on c-myc, no more than 300 nM; with human AML MV-4-11 cells, 300 to 3000 nM.

As to `CCc1nc2ncc(-c3c(C)noc3C)cc2n1Cc1ccccc1` [compound 128, 4-(1-benzyl-2-ethyl-1H-imidazo[4,5-b]pyridin-6-yl)-3,5-dimethylisoxazole], the IC50 in experiment [1] was no more than 300 nM; with c-myc, 300 to 3000 nM; in the experiment with human AML MV-4-11 cells, 300 to 3000 nM.

`CC(=O)Nc1cc(-c2c(C)noc2C)cc2c1nc(N1CCC1)n2Cc1ccccc1` [compound 130, N-(2-(azetidin-1-yl)-1-benzyl-6-(3,5-dimethylisoxazol-4-yl)-1H-benzo[d]imidazol-4-yl)acetamide]: the IC50 in experiment [1] was no more than 300 nM; in the experiment on c-myc, 300 to 3000 nM; with human AML MV-4-11 cells, 300 to 3000 nM.

As to `CCNc1nc2c(N)cc(-c3c(C)noc3C)cc2n1C(C)c1ccccc1` (stereo not shown) [compound 134, 6-(3,5-dimethylisoxazol-4-yl)-N2-ethyl-1-(1-phenylethyl)-1H-benzo[d]imidazole-2,4-diamine], the IC50 (in experiment [1]; in the experiment with c-myc; in the experiment on human AML MV-4-11 cells) was no more than 300 nM each time.

`Cc1noc(C)c1-c1cnc2nc(C3CC3)n(Cc3ccccc3)c2c1` [compound 138, 4-(1-benzyl-2-cyclopropyl-1H-imidazo[4,5-b]pyridin-6-yl)-3,5-dimethylisoxazole]: the IC50 was no more than 300 nM in experiment [1], no more than 300 nM in the experiment with c-myc and 300 to 3000 nM in the experiment with human AML MV-4-11 cells.

On to `Cc1noc(C)c1-c1cc(N)c2[nH]c(=O)n(CC3CC3)c2c1` [compound 161, 4-amino-1-(cyclopropylmethyl)-6-(3,5-dimethylisoxazol-4-yl)-1H-benzo[d]imidazol-2(3H)-one], for which the IC50 in experiment [1] was no more than 300 nM; in the experiment with human AML MV-4-11 cells it was 300 to 3000 nM.

On to `Cc1noc(C)c1-c1cc(Br)c2nc(C)n(C(=O)c3ccccc3)c2c1` [compound 200, (4-bromo-6-(3,5-dimethylisoxazol-4-yl)-2-methyl-1H-benzo[d]imidazol-1-yl)(phenyl)methanone], for which the 50% inhibitory concentration (IC50) in experiment [1] was in the range of 300 to 3000 nM. Also, the “Cell Proliferation activity” value in the experiment on human AML MV-4-11 cells was “Not active”.

On to `Cc1nc2ncc(-c3cnnn3C)cc2n1Cc1ccccc1` [compound 206, 1-benzyl-2-methyl-6-(1-methyl-1H-1,2,3-triazol-5-yl)-1H-imidazo[4,5-b]pyridine], for which the IC50 in experiment [1] was no more than 300 nM; in the experiment on human AML MV-4-11 cells it was 3000 to 30000 nM.

As to `COc1c(-c2c(C)noc2C)ccc2nc(C(F)(F)F)n(Cc3ccccc3)c12` [compound 241, 4-(1-benzyl-7-methoxy-2-(trifluoromethyl)-1H-benzo[d]imidazol-6-yl)-3,5-dimethylisoxazole], the IC50 in experiment [1] lay in the range of 300 to 3000 nM.

The values above are taken from patent US10363257B2 (ZENITH EPIGENETICS LTD., priority 2013, dated 2019).
